Several values for one entry are separate records, joined by “and”; a condition that tells them apart may be missing. Identical values can stand only once.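 Cells were grown in 96-well plates and exposed to each compound for 48 hours at five concentrations; endpoints were interpolated linearly between bracketing concentrations, or set to the highest concentration if not reached. GI50: concentration for 50% inhibition of growth.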 Activity calls are given as the source filed them. Rule as the data show it: active = GI50 up to about 1.1 µM and inactive = higher.
Key:
Assay in all cases: growth of human tumour cells (NCI), 48 h
786-0 = system: 786-0
CAKI-1 = system: CAKI-1
CCRF-CEM = system: CCRF-CEM
HCT-15 = system: HCT-15
HOP-62 = system: HOP-62
KM12 = system: KM12
MDA-MB-231 = system: MDA-MB-231
MDA-MB-435 = system: MDA-MB-435
MDA-N = system: MDA-N
NCI/ADR-RES = system: NCI/ADR-RES
OVCAR-5 = system: OVCAR-5
SF-268 = system: SF-268
SF-295 = system: SF-295
T47D = system: T47D
TK-10 = system: TK-10
UACC-257 = system: UACC-257
Hs-578T = system: Hs-578T
SK-MEL-5 = system: SK-MEL-5

| SMILES | GI50 (786-0) | GI50 (CAKI-1) | GI50 (CCRF-CEM) | GI50 (HCT-15) [µM] | GI50 (HOP-62) | GI50 (KM12) | GI50 (MDA-MB-231) | GI50 (MDA-MB-435) | GI50 (MDA-N) | GI50 (NCI/ADR-RES) | GI50 (OVCAR-5) | GI50 (SF-268) | GI50 (SF-295) | GI50 (T47D) | GI50 (TK-10) | GI50 (UACC-257) | GI50 (Hs-578T) | GI50 (SK-MEL-5) |
| --- | --- | --- | --- | --- | --- | --- | --- | --- | --- | --- | --- | --- | --- | --- | --- | --- | --- | --- |
| COc1ccc(C(O)c2ccc3c(c2)OCO3)cc1 (centres undefined) | > 100 µM (inactive) | > 100 µM (inactive) | > 100 µM (inactive) | > 100 | > 100 µM (inactive) | > 100 µM (inactive) | > 100 µM (inactive) | > 100 µM (inactive) | > 100 µM (inactive) | 65.6 µM (inactive) | > 100 µM (inactive) | > 100 µM (inactive) | > 100 µM (inactive) | 99.3 µM (inactive) | > 100 µM (inactive) | > 100 µM (inactive) | – | – |
| O=C(CCCN1CCC(Nc2ccc(F)cc2)(c2nnnn2C2CCCCC2)CC1)c1ccc(F)cc1 | 17.8 µM (inactive) | – | 7.1 µM (inactive) | 15.2 | 16.9 µM (inactive) | 3.52 µM (inactive) | 16.6 µM (inactive) | 16.7 µM (inactive) | 15.5 µM (inactive) | 16.3 µM (inactive) | 15.7 µM (inactive) | 12.8 µM (inactive) | 18.3 µM (inactive) | – | 15.3 µM (inactive) | 21.3 µM (inactive) | 18.5 µM (inactive) | 20.7 µM (inactive) |
| NNC(=O)c1nnn(CCc2ccccc2)c1C(=O)NN | > 100 µM (inactive) | > 100 µM (inactive) | > 100 µM (inactive) | > 100 | > 100 µM (inactive) | > 100 µM (inactive) | > 100 µM (inactive) | > 100 µM (inactive) | > 100 µM (inactive) | > 100 µM (inactive) | > 100 µM (inactive) | – | > 100 µM (inactive) | – | 68.2 µM (inactive) | > 100 µM (inactive) | – | > 100 µM (inactive) |
| N#Cc1c(-c2ccccc2)c(/C=N/c2ccc(Cl)cc2)c(=O)n2c1[nH]c1ccccc12 | > 100 µM (inactive) | 20.1 µM (inactive) | 21.4 µM (inactive) | > 100 | 73.5 µM (inactive) | 54.1 µM (inactive) | > 100 µM (inactive) | > 100 µM (inactive) | 20.4 µM (inactive) | > 100 µM (inactive) | > 100 µM (inactive) | > 100 µM (inactive) | 50.5 µM (inactive) | > 100 µM (inactive) | > 100 µM (inactive) | > 100 µM (inactive) | – | > 100 µM (inactive) |
| CC(C)=C1C(=O)C[C@]2(C)C/C=C(\C)CC/C=C(\C)CC[C@@H]12 | 8.69 µM (inactive) | 7.96 µM (inactive) | 9.23 µM (inactive) | 8.28 | 9.08 µM (inactive) | 8.67 µM (inactive) | 7.89 µM (inactive) | 9.53 µM (inactive) | – | 7.36 µM (inactive) | 12.1 µM (inactive) | 8.93 µM (inactive) | 11.3 µM (inactive) | 14.9 µM (inactive) | 9.42 µM (inactive) | 11.1 µM (inactive) | 11 µM (inactive) | 8.38 µM (inactive) |
| CCN1CC2=C(NC(=S)NC2c2ccc(Cl)cc2)/C(=C/c2ccc(Cl)cc2)C1 (centres undefined) | 45.6 µM (inactive) | 35.7 µM (inactive) | 14.5 µM (inactive) | 54.7 | > 100 µM (inactive) | > 100 µM (inactive) | > 100 µM (inactive) | 61.9 µM (inactive) | > 100 µM (inactive) | > 100 µM (inactive) | > 100 µM (inactive) | 77.4 µM (inactive) | 67.1 µM (inactive) | – | > 100 µM (inactive) | > 100 µM (inactive) | 57.5 µM (inactive) | 97.7 µM (inactive) |
| OC1(c2ccccc2)C2CCN(CC2)C1CN1CCOCC1 (centres undefined) | > 100 µM (inactive) | > 100 µM (inactive) | > 100 µM (inactive) | > 100 | > 100 µM (inactive) | > 100 µM (inactive) | > 100 µM (inactive) | > 100 µM (inactive) | – | > 100 µM (inactive) | > 100 µM (inactive) | > 100 µM (inactive) | > 100 µM (inactive) | > 100 µM (inactive) | > 100 µM (inactive) | > 100 µM (inactive) | – | > 100 µM (inactive) |
| COC1C(OC(C)=O)CC(=O)OC(C)C/C=C/C=C\C(O)C(C)CC(CC=O)C1OC1OC(C)C(OC2CC(C)(O)C(OC(=O)CC(C)C)C(C)O2)C(N(C)C)C1O (centres undefined) | > 100 µM (inactive) | > 100 µM (inactive) | 45.3 µM (inactive) and 33 µM (inactive) | – | > 100 µM (inactive) | – | > 100 µM (inactive) | 51.1 µM (inactive) | 61.2 µM (inactive) | > 100 µM (inactive) | > 100 µM (inactive) | 56 µM (inactive) | > 100 µM (inactive) | > 100 µM (inactive) | > 100 µM (inactive) | 66.5 µM (inactive) and 70.1 µM (inactive) | – | 46.9 µM (inactive) and 39.3 µM (inactive) |
